Patent US20260078103A1, “ISOQUINOLONES AS PI3K INHIBITORS” (OnKure, Inc., priority 2022, published 2026)
Where two headings read alike, the source gives them in different places.

Tests used:
Format in all cases: cell-based
[1] = tested on: T47D cells expressing mutant PI3Ka (H1047R); test: In vitro cell proliferation, T47D cells (CellTiter-Glo); settings: inhibition of proliferation, read-out: Avg T-47D EC50
How it was run: (§1)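 1,500 cells/well seeded onto pre-stamped 10-pt dilution plates; T47D in RPMI + 10% FBS + insulin 0.2 units/mL, SKBR3 in McCoys 5a + 10% FBS. 72 h, 37 °C, 5% CO2. CTG readout. 0% = 0.1% DMSO, 100% = 10 uM Alpelisib; sigmoidal fit gives EC50.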

[2] = tested on: phosphorylation of AKT (pAKT) in SKBR3 cells express WT PI3Ka; test: In vitro cell pAKT (Ser473) HTRF, SKBR3 cells; settings: cellular pAKT
How it was run: (§2)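 T47D cells (RPMI, 10% FBS, 0.2 units/mL insulin) or SKBR3 cells (McCoy's 5a, 10% FBS) were seeded onto 10-point compound dilutions and incubated 6 h at 37 °C. After lysis, pAKT was detected overnight by HTRF (Eu cryptate/d2). IC50 was fitted from % inhibition relative to 0.1% DMSO and 10 uM alpelisib controls.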

[3] = tested on: SKBR3 cells express WT PI3Ka; test: In vitro cell proliferation, SKBR3 cells (CellTiter-Glo); settings: inhibition of proliferation
How it was run: as §1

[4] = tested on: phosphorylation of AKT (pAKT) in T47D cells expressing mutant PI3Ka (H1047R); test: In vitro cell pAKT (Ser473) HTRF, T47D cells; settings: cellular pAKT, T47D cells, mutant PI3Ka (H1047R), 6 hours, read-out: Avg T-47D IC50
How it was run: as §2

Row | Compound | EC50 ([1]; Homo sapiens, T47D, 72 h) | IC50 ([2]; Homo sapiens, SK-BR-3, 6 h) | EC50 ([3]; Homo sapiens, SK-BR-3, 72 h) | IC50 ([4]; Homo sapiens, T47D, 6 h) | EC50 ([1]; 72 hours) | IC50 ([2]; 6 hours) | EC50 ([3]; 72 hours) | IC50 [4]
1 | Cc1cc(C(C)Nc2ccccc2C(=O)O)c2cc(N3CCN4CC(F)(F)C[C@@H]4C3)n(C)c(=O)c2c1 (stereo partly drawn) [Example 140] | 1 to 500 nM | > 15000 nM | > 15000 nM | 1 to 500 nM |  |  |  | 
2 | COc1cccc(N2CCN(c3cc4c([C@@H](C)Nc5ccccc5C(=O)O)cc(C)cc4c(=O)n3C)CC2)c1 [Example 147] | 1 to 500 nM | 2000 to 15000 nM | > 15000 nM | 1 to 500 nM |  |  |  | 
3 | Cc1cc([C@@H](C)Nc2ccc(Cl)nc2C(=O)O)c2cc(N3CCN(C4COC4)CC3)n(C)c(=O)c2c1 [Example 148] | 500 to 2000 nM | > 15000 nM | > 15000 nM | 500 to 2000 nM |  |  |  | 
4 | Cc1cc([C@@H](C)Nc2ccccc2C(=O)O)c2cc(N3CC(c4ccccn4)C3)n(C)c(=O)c2c1 [Example 152] | 500 to 2000 nM | > 15000 nM | > 15000 nM | 1 to 500 nM |  |  |  | 
5 | Cc1cc([C@@H](C)Nc2ccccc2C(=O)O)c2cc(N3CCN(CC4OCCO4)CC3)n(C)c(=O)c2c1 [Example 157] | 1 to 500 nM | > 15000 nM | > 15000 nM | 1 to 500 nM |  |  |  | 
6 | CON1CCN(c2cc3c([C@@H](C)Nc4ccccc4C(=O)O)cc(C)cc3c(=O)n2C)CC1 [Example 158] | 1 to 500 nM | > 15000 nM | > 15000 nM | 1 to 500 nM |  |  |  | 
7 | Cc1cc(C(C)Nc2ccccc2C(=O)O)c2cc(C#Cc3cccc(C#N)c3)n(C)c(=O)c2c1 (stereo not drawn) [Example 159] |  |  |  |  | 2000 to 15000 nM | > 15000 nM | > 15000 nM | 500 to 2000 nM
8 | Cc1cc([C@@H](C)Nc2ccccc2C(=O)O)c2cc(N3CCN(c4cccc(Cl)c4)CC3)n(C)c(=O)c2c1 [Example 160] |  |  |  |  | 1 to 500 nM | > 15000 nM | > 15000 nM | 1 to 500 nM
9 | Cc1cc([C@@H](C)Nc2ccccc2C(=O)O)c2cc(N3CCN(c4cccc(C#N)c4)CC3)n(C)c(=O)c2c1 [Example 161] |  |  |  |  | 1 to 500 nM | 2000 to 15000 nM | 2000 to 15000 nM | 1 to 500 nM
10 | Cc1cc([C@@H](C)Nc2ccccc2C(=O)O)c2cc(N3CCN(CC(F)F)CC3)n(C)c(=O)c2c1 [Example 162] |  |  |  |  | 1 to 500 nM | 2000 to 15000 nM | > 15000 nM | 1 to 500 nM
11 | Cc1cc([C@@H](C)Nc2ccccc2C(=O)O)c2cc(N3CCC(C)(C#N)CC3)n(C)c(=O)c2c1 [Example 164] |  |  |  |  | 1 to 500 nM | 2000 to 15000 nM | 2000 to 15000 nM | 1 to 500 nM
12 | Cc1cc([C@@H](C)Nc2ccccc2C(=O)O)c2cc(N3CC(C)(C#N)C3)n(C)c(=O)c2c1 [Example 165] |  |  |  |  | 500 to 2000 nM | > 15000 nM | > 15000 nM | 1 to 500 nM
13 | Cc1cc(C(C)Nc2ccccc2C(=O)O)c2cc(N3CC4(CCN(CC(F)(F)F)C4)C3)n(C)c(=O)c2c1 (stereo not drawn) [Example 171] |  |  |  |  | 500 to 2000 nM | > 15000 nM | > 15000 nM | 1 to 500 nM
14 | Cc1cc(C(C)Nc2ccccc2C(=O)O)c2cc(N3CC4(CCN(CC(F)(F)F)CC4)C3)n(C)c(=O)c2c1 (stereo not drawn) [Example 172] |  |  |  |  | 1 to 500 nM | > 15000 nM | > 15000 nM | 1 to 500 nM
15 | Cc1cc([C@@H](C)Nc2ccccc2C(=O)O)c2cc(N3CCN(Cc4ccccn4)CC3)n(C)c(=O)c2c1 [Example 175] | 1 to 500 nM | > 15000 nM | 2000 to 15000 nM | 1 to 500 nM |  |  |  | 
16 | Cc1cc([C@@H](C)Nc2ccccc2C(=O)O)c2cc(N3CCN(Cc4cccc(C)n4)CC3)n(C)c(=O)c2c1 [Example 176] | 1 to 500 nM | > 15000 nM | 2000 to 15000 nM | 1 to 500 nM |  |  |  | 
17 | Cc1cc([C@@H](C)Nc2ccccc2C(=O)O)c2cc(N3CC(C)(c4ccccc4)C3)n(C)c(=O)c2c1 [Example 179] | 1 to 500 nM | > 15000 nM | > 15000 nM | 1 to 500 nM |  |  |  | 

Row | Compound | EC50 ([1]; Homo sapiens, T47D, 72 h) | IC50 ([2]; Homo sapiens, SK-BR-3, 6 h) | EC50 ([3]; Homo sapiens, SK-BR-3, 72 h) | IC50 ([4]; Homo sapiens, T47D, 6 h) | EC50 ([1]; 72 hours) | IC50 ([2]; 6 hours) | EC50 ([3]; 72 hours) | IC50 [4]
18 | COC1CN(c2cc3c([C@@H](C)Nc4ccccc4C(=O)O)cc(C)cc3c(=O)n2C)C1 [Example 180] | 1 to 500 nM | > 15000 nM | > 15000 nM | 1 to 500 nM |  |  |  | 
19 | Cc1cc([C@@H](C)Nc2ccccc2C(=O)O)c2cc(N3CC4(CN(CC(F)(F)F)C4)C3)n(C)c(=O)c2c1 [Example 184] | 500 to 2000 nM | > 15000 nM | > 15000 nM | 1 to 500 nM |  |  |  | 
20 | Cc1cc([C@@H](C)Nc2ccccc2C(=O)O)c2cc(N3CCC4(CN(CC(F)(F)F)C4)C3)n(C)c(=O)c2c1 [Example 185] | 1 to 500 nM | 2000 to 15000 nM | > 15000 nM | 1 to 500 nM |  |  |  | 
21 | Cc1cc([C@@H](C)Nc2ccccc2C(=O)O)c2cc(N3CCN(c4ccccn4)CC3)n(C)c(=O)c2c1 [Example 186] | 1 to 500 nM | 2000 to 15000 nM | 2000 to 15000 nM | 1 to 500 nM |  |  |  | 
22 | Cc1cc([C@@H](C)Nc2ccccc2C(=O)O)c2cc(N3CCN(c4ccnc(C)n4)CC3)n(C)c(=O)c2c1 [Example 187] | 1 to 500 nM | > 15000 nM | 2000 to 15000 nM | 1 to 500 nM |  |  |  | 
23 | Cc1cc([C@@H](C)Nc2ccccc2C(=O)O)c2cc(N3CCN(c4cccnc4C#N)CC3)n(C)c(=O)c2c1 [Example 188] | 1 to 500 nM | 500 to 2000 nM | 2000 to 15000 nM | 1 to 500 nM |  |  |  | 
24 | Cc1cc([C@@H](C)Nc2ccccc2C(=O)O)c2cc(-c3ccc(OC(F)F)nc3)n(C)c(=O)c2c1 [Example 189] | 1 to 500 nM | > 15000 nM | > 15000 nM | 1 to 500 nM |  |  |  | 
25 | Cc1cc(C(C)Nc2ccccc2C(=O)O)c2cc(N3CC4C(C3)C4C(F)(F)F)n(C)c(=O)c2c1 (stereo not drawn) [Example 191] |  |  |  |  | 500 to 2000 nM | > 15000 nM | > 15000 nM | 1 to 500 nM
26 | Cc1cc([C@@H](C)Nc2ccccc2C(=O)O)c2cc(N3CC(F)(c4cccnc4)C3)n(C)c(=O)c2c1 [Example 192] | 1 to 500 nM | > 15000 nM | > 15000 nM | 1 to 500 nM |  |  |  | 
27 | COCC1CN(c2cc3c([C@@H](C)Nc4ccccc4C(=O)O)cc(C)cc3c(=O)n2C)C1 [Example 193] | 500 to 2000 nM | > 15000 nM | > 15000 nM | 1 to 500 nM |  |  |  | 
28 | Cc1cc([C@@H](C)Nc2ccccc2C(=O)O)c2cc(-c3ccc(Oc4ccc(F)cc4)nc3)n(C)c(=O)c2c1 [Example 194] |  |  |  |  | 500 to 2000 nM | > 15000 nM | > 15000 nM | 1 to 500 nM
29 | Cc1cc([C@@H](C)Nc2ccccc2C(=O)O)c2cc(N3CC4(CCCN(CC(F)(F)F)C4)C3)n(C)c(=O)c2c1 [Example 195] |  |  |  |  | 500 to 2000 nM | > 15000 nM | > 15000 nM | 1 to 500 nM
30 | Cc1cc([C@@H](C)Nc2ccccc2C(=O)O)c2cc(N3CCN(c4cccc(C)n4)CC3)n(C)c(=O)c2c1 [Example 196] |  |  |  |  | 1 to 500 nM | 2000 to 15000 nM | > 15000 nM | 1 to 500 nM
31 | Cc1cc([C@@H](C)Nc2ccccc2C(=O)O)c2cc(N3CCN(c4ccccc4C#N)CC3)n(C)c(=O)c2c1 [Example 197] | 1 to 500 nM | 2000 to 15000 nM | > 15000 nM | 1 to 500 nM |  |  |  | 
32 | Cc1cc([C@@H](C)Nc2ccccc2C(=O)O)c2cc(N3CCN(c4ncnn4C)CC3)n(C)c(=O)c2c1 [Example 198] | 500 to 2000 nM | > 15000 nM | > 15000 nM | 500 to 2000 nM |  |  |  | 
33 | Cc1cc([C@@H](C)Nc2ccccc2C(=O)O)c2cc(N3CCN(c4ncccc4C#N)CC3)n(C)c(=O)c2c1 [Example 199] | 1 to 500 nM | 2000 to 15000 nM | 2000 to 15000 nM | 1 to 500 nM |  |  |  | 
